How the values were obtained:
[1] = test system: STAT3, AKT, ERK, Shp2 in BaF3 cells transduced with the FLT-3ITD retrovirus; assay type: cell-based; details: FLT-3ITD BaF3
Excerpt: (§1) All antibodies were from Cell Signaling Technology, Inc. (Danvers, Mass.)
(§2) Since ROS1, ALK, LTK, InsR, and IGFIR belong to the same family of tyrosine kinases, they may share similar structure in the kinase domain.

[2] = test system: BaF3 cells expressing FIG-ROS1(S); experiment: MTS cell growth assay, BaF3 expressing FIG-ROS1(S); assay type: cell-based
Protocol: (§3) BaF3 and Karpas 299 cells were obtained from DSMZ (Deutsche Sammlung von Mikroorganismen und Zellkulturen GmbH, Germany). BaF3 cells, which need interleukin-3 to survive, were maintained at 37° C. in RPMI-1640 medium (Invitrogen) with 10% fetal bovine serum (FBS) (Sigma) and 1.0 ng/ml murine IL-3 (R&D Systems). Karpas 299 cells (a lymphoma cell line) were grown in RPMI-1640 with 10% FBS.
(§4) BaF3 cells were transduced with retrovirus encoding FIG-ROS1(S), FIG-ROS1(L), or FLT-31TD (the Internal tandem duplication mutation in FLT3 causes AML leukemia), and selected for IL3 independent growth. Karpas 299 cells, which express NPM-ALK, was used as a positive control. Retroviruses were generated as previously described (see PCT Publication No. WO 2010/093928, incorporated by reference).
(§5) A MTS assay was performed using the CellTiter 96 Aqueous One Solution Reagent (Promega, Catalog No G3582). […] After 72 hours, 20 μl of the CellTiter 96 Aqueous One Solution Reagent was added into each well of a 96 well assay plate (flat bottom), and then 100 μl of cells grown with or without treatment. Media-only wells were used as controls. The 96 well plate was incubated for 1-4 hours at 37° C., and then viable cells were counted by reading the absorbance at 490 nm using a 96 well plate reader.

[3] = test system: STAT3, AKT, ERK, Shp2 in FIG-ROS1(L) expressing BaF3 cells; experiment: Western blotting, downstream signaling molecules in FIG-ROS1(L) expressing BaF3 cells; assay type: cell-based
Excerpt: as §1, §2

[4] = test system: BaF3 cells expressing FIG-ROS1(L); experiment: Cleaved caspase-3 flow cytometry (apoptosis), BaF3 FIG-ROS1(L); assay type: cell-based; details: FIG. 7
Excerpt: (§6) The mechanism of death of the BaF3 and Karpas 299 cells was next assessed by measuring the percentage of cleaved-caspase 3 positive cells by flow cytometry assay using cleaved caspase-3 as a marker for apoptosis.

Karpas 299 cells = experiment: Cleaved caspase-3 flow cytometry (apoptosis), Karpas 299; assay type: cell-based; details: FIG. 7
Excerpt: as §6

[5] = test system: Karpas 299 cells (express NPM-ALK); details: FIG. 6, 0-1000 nM, 72 hours
Protocol: as §3, §4, §5

[6] = test system: BaF3 cells transduced with FLT3/ITD
Protocol: as §3, §4, §5

[7] = test system: BaF3 cells expressing FIG-ROS1(S); experiment: Cleaved caspase-3 flow cytometry (apoptosis), BaF3 FIG-ROS1(S); assay type: cell-based; details: FIG. 7
Excerpt: as §6

[8] = test system: STAT3, AKT, ERK, Shp2 in FIG-ROS1(S) expressing BaF3 cells; experiment: Western blotting, downstream signaling molecules in FIG-ROS1(S) expressing BaF3 cells; assay type: cell-based
Excerpt: as §1, §2

[9] = test system: BaF3 cells expressing myc-tagged neomycin (Neo-Myc); experiment: MTS cell growth assay, BaF3 expressing myc-tagged neomycin; assay type: cell-based; details: FIGS. 9A/9B; 0-1.0 uM; negative control BaF3 neo-myc
Protocol: as §3, §5

FIG-ROS1(S) = molecular target: T1, FIG-ROS1(S) (Homo sapiens, UniProt P08922); experiment: Western blotting, phosphorylation of FIG-ROS1(S) in BaF3 cells; assay type: cell-based
T1 construct: expressed in transfected cells; host or cells: BaF3 cells (retroviral transduction, selected for IL3-independent growth)
Excerpt: as §1, §2

FIG-ROS1(L) = FIG-ROS1(L) (Homo sapiens, UniProt P08922); experiment: Western blotting, phosphorylation of FIG-ROS1(L) in BaF3 cells; assay type: cell-based
Excerpt: as §1, §2

[10] = test system: BaF3 cells expressing FIG-ROS1(L); experiment: MTS cell growth assay, BaF3 expressing FIG-ROS1(L); assay type: cell-based
Protocol: as §3, §4, §5

[11] = FIG. 8, 0, 10, 50, or 100 nM for three hours
[12] = FIGS. 9A/9B, 0-1.0 uM, same concentration of each
[13] = FIG. 10, 0, 0.1, 0.3, or 1.0 uM for three hours

Structure (SMILES): COc1cc(N2CCC(N3CCN(C)CC3)CC2)ccc1Nc1ncc(Cl)c(Nc2ccccc2S(=O)(=O)C(C)C)n1 [TAE-684]
- phosphorylation of STAT3, AKT, and ERK, and Shp2 [1, 11]: not affected
- cellular growth response ([2]; FIG. 6, 0-1000 nM, 72 hours): stopped growing
- cellular growth response, TAE-684 compared with crizotinib [2, 12]: more sensitive to TAE-684 than to crizotinib
- phosphorylation of STAT3, AKT, and ERK, and Shp2 [3, 11]: inhibited
- mechanism of death, cleaved-caspase 3 positive cells [4]: die by apoptosis
- mechanism of death, cleaved-caspase 3 positive cells (Karpas 299 cells): did not die by apoptosis
- cellular growth response [5]: stopped growing
- cellular growth response ([6]; FIG. 6, 0-1000 nM, 72 hours, BaF3 FLT3/ITD): not susceptible
- cellular growth response, compared with FIG-ROS1 BaF3 and Karpas 299 cells ([6]; FIGS. 9A/9B, 0-1.0 uM, negative control BaF3 FLT3-ITD): less sensitive
- mechanism of death, cleaved-caspase 3 positive cells [7]: die by apoptosis
- phosphorylation of STAT3, AKT, and ERK, and Shp2 [8, 11]: inhibited
- cellular growth response, compared with FIG-ROS1 BaF3 and Karpas 299 cells [9]: less sensitive
- phosphorylation of FIG-ROS1(S) (FIG-ROS1(S); [11]): inhibited
- phosphorylation of FIG-ROS1(L) (FIG-ROS1(L); [11]): inhibited
- cellular growth response ([10]; FIG. 6, 0-1000 nM, 72 hours): stopped growing
- cellular growth response, TAE-684 compared with crizotinib [10, 12]: more sensitive to TAE-684 than to crizotinib

Structure (SMILES): C[C@@H](Oc1cc(-c2cnn(C3CCNCC3)c2)cnc1N)c1c(Cl)ccc(F)c1Cl [crizotinib]
- phosphorylation of STAT3 and ERK [1, 13]: not affected
- phosphorylation of STAT3 and ERK [3, 13]: inhibited
- phosphorylation of STAT3 and ERK [8, 13]: inhibited
- phosphorylation of FIG-ROS1(S) (FIG-ROS1(S); [13]): inhibited
- phosphorylation of FIG-ROS1(L) (FIG-ROS1(L); [13]): inhibited
